Columns and labels:
[1] = system: HT-29 Human Colon Cancer Cells Transplanted into Nude Mice; experiment: Preclinical chemotherapeutic xenograft study; type: in vivo; conditions: for Percent mean tumor weight gain (mg) following treatments: relative to day 1 of same group
Method: (§1) For the preclinical chemotherapeutic studies, in the absence of an maximum tolerated dose, the mice are supplemented with 30 and 20 mgs/0.1 ml by gavage daily for 21 days. Compound 1 is dissolved in 100% ethanol at 2 grams of compound 1/5 mls of ethanol, and diluted in peanut oil (nonsupplemented vitamin E) to yield 30 and 20 mgs of compound 1 per 0.1 ml. Vehicle control consisted of a mixture of ethanol and peanut oil equivalents. The preclinical chemotherapeutic studies are conducted with compound 1, utilizing human MDA-MB-435 human breast cancer cells, human DU-145 prostate cancer cells, and human HT-20 colon tumor cells transplanted into Balb/c immune compromised nude mice.
(§2) A total of 40 immune compromised nude mice are utilized for testing each test compound (two treatment groups at 20 and 30 mg/day) in each tumor cell type. […] Tumor cells are transplanted subcutaneously into the left flank and permitted to grow to approximately 70 mg in size, test compound treatments by daily gavage are initiated, and continue for a total of 21 days. Mice are monitored daily for tumor size by caliper measurements. Mice are treated for 21 days; however, the mice are sacrificed when the tumors of the vehicle control reached 500 mg in weight. At the completion of the protocol, tumors are excised and tumor size established by weight. At the time of sacrifice, serum, tumor, and heart muscle are taken from animals in the two compound 1 test groups in order to establish levels of compound 1 via HPLC analyses (data not included). The chemotherapeutic effectiveness of compound 1 administered daily at 30 and 20 mgs/day is determined by comparing the tumor size of the two treatment groups with the vehicle control group for each of the three tumor types, and by comparing the size of the tumor in the two treatment groups with the tumor group from the positive control. Treatment is for 21 days, experiments are continued until mean weight of tumor for vehicle control reaches 500 mgs.

[2] = system: DU-145 Human Prostate Cancer Cells Transplanted into Nude Mice; experiment: Preclinical chemotherapeutic xenograft study; type: in vivo; conditions: for Percent mean tumor weight gain (mg) following treatments: relative to day 1 of same group
Method: as §1, §2

[3] = system: MDA-MB-435 Human Breast Cancer Cells Transplanted into Nude Mice; experiment: Preclinical chemotherapeutic xenograft study; type: in vivo; conditions: for Percent mean tumor weight gain (mg) following treatments: relative to day 1 of same group
Method: as §1, §2

MDA-MB-435 cells = experiment: DNA synthesis arrest by 3H-uptake (Example 8); type: cell-based, human; conditions: Homo sapiens; MDA-MB-435; 2% serum; 3H-uptake at one day treatment
Method: (§3) MDA-MB-435 and MCF-7 cells at 1.5×10^5/well in 12 well plates for apoptosis and 1.5×10^4/well in 96 well plates for DNA synthesis arrest were incubated overnight in culture media and treated with α-tocopherol, α-tocotrinel, compound 1, 6-0-carboxymethyl alpha-tocotrienol (6-0-CM-α-T, 44), and vitamin E succinate (VES) at different concentrations in experimental media (2% serum for MDA-MB-435 cells and 5% serum for MCF-7 cells). DNA synthesis arrest was determined by ^3H-uptake at one day treatment and apoptosis was detected by DAPI staining at three day treatment. EC50 was calculated as the dosage of test compounds that gave 50% growth inhibition.

MCF-7 cells = experiment: DNA synthesis arrest by 3H-uptake (Example 8); type: cell-based, human; conditions: Homo sapiens, MCF7, 5% serum, 3H-uptake at one day treatment
Method: as §3

[4] = Solubility in ethanol (stock solution); type: physicochemical; conditions: in 5 mls of 100% ethanol, vortex at 37° C.
Excerpt: This is the maximum amount of compound 1 that will go into solution.

[5] = 20 mg/day by gavage for 21 days, day 22
[6] = 30 mg/day by gavage for 21 days, day 22

In the case of `Cc1c(C)c2c(c(C)c1OCC(=O)O)CC[C@@](C)(CCC[C@H](C)CCC[C@H](C)CCCC(C)C)O2` [Compound 1, 2,5,7,8-tetramethyl-(2R-(4R,8R,12-trimethyltridecyl)chroman-6-yloxy)acetic acid], the “reduction of mean tumor weight vs vehicle control” value (from here on “reduction of mean tumor weight”) [1, 5] is reported as 33.3%, the “Mean tumor Weights (mg) Following Treatments” value (“Mean tumor Weights” for short) ([1]; 20 mg/day gavage, day 1) is reported as 59.5 mg and the “Percent mean tumor weight gain (mg) following treatments” value (from here on “Percent mean tumor weight gain”) ([1]; 20 mg/day gavage, day 1) is reported as 100%. The “Mean tumor Weights” value ([1]; 20 mg/day gavage, day 5) was 84.0 mg, the “Percent mean tumor weight gain” value ([1]; 20 mg/day gavage, day 5) was 141.2% and the “Mean tumor Weights” value ([1]; 20 mg/day gavage, day 8) was 97.0 mg. The “Percent mean tumor weight gain” value ([1]; 20 mg/day gavage, day 8) was 163.0%, the “Mean tumor Weights” value ([1]; 20 mg/day gavage, day 12) was 124.6 mg and the “Percent mean tumor weight gain” value ([1]; 20 mg/day gavage, day 12) was 209.4%. The “Mean tumor Weights” value ([1]; 20 mg/day gavage, day 15) was 147.3 mg, the “Percent mean tumor weight gain” value ([1]; 20 mg/day gavage, day 15) was 247.6% and the “Mean tumor Weights” value ([1]; 20 mg/day gavage, day 19) was 198.0 mg. For the same compound, the “Percent mean tumor weight gain” value ([1]; 20 mg/day gavage, day 19) was 332.8%, the “Mean tumor Weights” value ([1]; 20 mg/day gavage, day 22) was 248.2 mg and the “Percent mean tumor weight gain” value ([1]; 20 mg/day gavage, day 22) was 417.1%. The “reduction of mean tumor weight” value [1, 6] was 34.5%, the “Mean tumor Weights” value ([1]; 30 mg/day gavage, day 1) was 40.0 mg and the “Percent mean tumor weight gain” value ([1]; 30 mg/day gavage, day 1) was 100%. For the same compound, the “Mean tumor Weights” value ([1]; 30 mg/day gavage, day 5) was 83.0 mg, the “Percent mean tumor weight gain” value ([1]; 30 mg/day gavage, day 5) was 139.5% and the “Mean tumor Weights” value ([1]; 30 mg/day gavage, day 8) was 96.7 mg. The “Percent mean tumor weight gain” value ([1]; 30 mg/day gavage, day 8) was 162.5%, the “Mean tumor Weights” value ([1]; 30 mg/day gavage, day 12) was 129.3 mg and the “Percent mean tumor weight gain” value ([1]; 30 mg/day gavage, day 12) was 217.3%. The “Mean tumor Weights” value ([1]; 30 mg/day gavage, day 15) was 144.1 mg, the “Percent mean tumor weight gain” value ([1]; 30 mg/day gavage, day 15) was 242.2% and the “Mean tumor Weights” value ([1]; 30 mg/day gavage, day 19) was 176.1 mg. The “Percent mean tumor weight gain” value ([1]; 30 mg/day gavage, day 19) was 296.0%, the “Mean tumor Weights” value ([1]; 30 mg/day gavage, day 22) was 243.8 mg and the “Percent mean tumor weight gain” value ([1]; 30 mg/day gavage, day 22) was 409.7%. For the same compound, the “reduction of mean tumor weight” value [2, 5] was 31.5%, the “Mean tumor Weights” value ([2]; 20 mg/day gavage, day 1) was 66.5 mg and the “Percent mean tumor weight gain” value ([2]; 20 mg/day gavage, day 1) was 100%. For the same compound, the “Mean tumor Weights” value ([2]; 20 mg/day gavage, day 5) was 103.5 mg, the “Percent mean tumor weight gain” value ([2]; 20 mg/day gavage, day 5) was 155.6% and the “Mean tumor Weights” value ([2]; 20 mg/day gavage, day 8) was 137.9 mg. For the same compound, the “Percent mean tumor weight gain” value ([2]; 20 mg/day gavage, day 8) was 207.4%, the “Mean tumor Weights” value ([2]; 20 mg/day gavage, day 12) was 208 mg and the “Percent mean tumor weight gain” value ([2]; 20 mg/day gavage, day 12) was 312.8%. The “Mean tumor Weights” value ([2]; 20 mg/day gavage, day 15) was 254.8 mg, the “Percent mean tumor weight gain” value ([2]; 20 mg/day gavage, day 15) was 383.2% and the “Mean tumor Weights” value ([2]; 20 mg/day gavage, day 19) was 362.2 mg. The “Percent mean tumor weight gain” value ([2]; 20 mg/day gavage, day 19) was 362.2%, the “Mean tumor Weights” value ([2]; 20 mg/day gavage, day 22) was 370.5 mg and the “Percent mean tumor weight gain” value ([2]; 20 mg/day gavage, day 22) was 544.7%. The “reduction of mean tumor weight” value [2, 6] was 24.8%, the “Mean tumor Weights” value ([2]; 30 mg/day gavage, day 1) was 67.8 mg and the “Percent mean tumor weight gain” value ([2]; 30 mg/day gavage, day 1) was 100%. The “Mean tumor Weights” value ([2]; 30 mg/day gavage, day 5) was 102.5 mg, the “Percent mean tumor weight gain” value ([2]; 30 mg/day gavage, day 5) was 151.2% and the “Mean tumor Weights” value ([2]; 30 mg/day gavage, day 8) was 131.3 mg. For the same compound, the “Percent mean tumor weight gain” value ([2]; 30 mg/day gavage, day 8) was 193.7%, the “Mean tumor Weights” value ([2]; 30 mg/day gavage, day 12) was 241.2 mg and the “Percent mean tumor weight gain” value ([2]; 30 mg/day gavage, day 12) was 355.8%. For the same compound, the “Mean tumor Weights” value ([2]; 30 mg/day gavage, day 15) was 256.8 mg, the “Percent mean tumor weight gain” value ([2]; 30 mg/day gavage, day 15) was 378.8% and the “Mean tumor Weights” value ([2]; 30 mg/day gavage, day 19) was 379.9 mg. The “Percent mean tumor weight gain” value ([2]; 30 mg/day gavage, day 19) was 379.9%, the “Mean tumor Weights” value ([2]; 30 mg/day gavage, day 22) was 407 mg and the “Percent mean tumor weight gain” value ([2]; 30 mg/day gavage, day 22) was 560.3%. The “reduction of mean tumor weight” value ([3]; 20 mg/day by gavage for 21 days, day 21) was 20.7%, the “Mean tumor Weights” value ([3]; 20 mg/day gavage, day 1) was 70.1 mg and the “Percent mean tumor weight gain” value ([3]; 20 mg/day gavage, day 1) was 100%. For the same compound, the “Mean tumor Weights” value ([3]; 20 mg/day gavage, day 4) was 85.8 mg, the “Percent mean tumor weight gain” value ([3]; 20 mg/day gavage, day 4) was 122.4% and the “Mean tumor Weights” value ([3]; 20 mg/day gavage, day 7) was 123.9 mg. For the same compound, the “Percent mean tumor weight gain” value ([3]; 20 mg/day gavage, day 7) was 176.7%, the “Mean tumor Weights” value ([3]; 20 mg/day gavage, day 10) was 127.9 mg and the “Percent mean tumor weight gain” value ([3]; 20 mg/day gavage, day 10) was 182.5%. For the same compound, the “Mean tumor Weights” value ([3]; 20 mg/day gavage, day 14) was 147.2 mg, the “Percent mean tumor weight gain” value ([3]; 20 mg/day gavage, day 14) was 210.0% and the “Mean tumor Weights” value ([3]; 20 mg/day gavage, day 17) was 143.8 mg. For the same compound, the “Percent mean tumor weight gain” value ([3]; 20 mg/day gavage, day 17) was 205.1%, the “Mean tumor Weights” value ([3]; 20 mg/day gavage, day 21) was 179.4 mg and the “Percent mean tumor weight gain” value ([3]; 20 mg/day gavage, day 21) was 255.9%. The “reduction of mean tumor weight” value ([3]; 30 mg/day by gavage for 21 days, day 21) was 44.6%, the “Mean tumor Weights” value ([3]; 30 mg/day gavage, day 1) was 68.1 mg and the “Percent mean tumor weight gain” value ([3]; 30 mg/day gavage, day 1) was 100%. For the same compound, the “Mean tumor Weights” value ([3]; 30 mg/day gavage, day 4) was 85.7 mg, the “Percent mean tumor weight gain” value ([3]; 30 mg/day gavage, day 4) was 125.8% and the “Mean tumor Weights” value ([3]; 30 mg/day gavage, day 7) was 97.3 mg. For the same compound, the “Percent mean tumor weight gain” value ([3]; 30 mg/day gavage, day 7) was 142.9%, the “Mean tumor Weights” value ([3]; 30 mg/day gavage, day 10) was 98.4 mg and the “Percent mean tumor weight gain” value ([3]; 30 mg/day gavage, day 10) was 144.5%. For the same compound, the “Mean tumor Weights” value ([3]; 30 mg/day gavage, day 14) was 126.6 mg, the “Percent mean tumor weight gain” value ([3]; 30 mg/day gavage, day 14) was 185.9% and the “Mean tumor Weights” value ([3]; 30 mg/day gavage, day 17) was 118.7 mg. For the same compound, the “Percent mean tumor weight gain” value ([3]; 30 mg/day gavage, day 17) was 174.3%, the “Mean tumor Weights” value ([3]; 30 mg/day gavage, day 21) was 125.2 mg and the “Percent mean tumor weight gain” value ([3]; 30 mg/day gavage, day 21) was 178.6%. The EC50 (MDA-MB-435 cells) was 15 µM, the EC50 (MCF-7 cells) was 20 µM and the “maximum amount that will go into solution” value [4] was 2 grams.

Source: patent US8148424B2, “Tocopherols, tocotrienols, other chroman and side chain derivatives and uses thereof” (Research Development Foundation, priority 1998, dated 2012)
